Laboratory results published in US8101774B2, “Ester derivatives and medicinal use thereof” (Japan Tobacco Inc., priority 2004, dated 2012).

Target: T1, Microsomal triglyceride transfer protein (MTP) from human small intestine microsome (Homo sapiens, UniProt P55157)
T1 construct: Human small intestine microsome was dialyzed against 10 mM phosphate buffer; tissue Tissue Transforming Technologies, Inc; host or cells: human small intestine microsome
Test: Inhibition test of interliposomal triglyceride (TG) transfer activity by MTP
Format: biochemical
Conditions: purified MTP from human small intestine microsome, 37° C., 1.5 hours
Method in brief: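 DEAE-purified human small intestine MTP (50 μL of 20 μg/mL) incubated 1.5 hours at 37° C with ^14C-triolein donor and unlabelled acceptor SUV liposomes in pH 7.4 Tris buffer with 0.5% BSA. Donor removed on DEAE cellulose; acceptor radioactivity counted, blank-corrected against DMSO control, giving percent inhibition and IC50.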

T1 sequence (P55157 19-894): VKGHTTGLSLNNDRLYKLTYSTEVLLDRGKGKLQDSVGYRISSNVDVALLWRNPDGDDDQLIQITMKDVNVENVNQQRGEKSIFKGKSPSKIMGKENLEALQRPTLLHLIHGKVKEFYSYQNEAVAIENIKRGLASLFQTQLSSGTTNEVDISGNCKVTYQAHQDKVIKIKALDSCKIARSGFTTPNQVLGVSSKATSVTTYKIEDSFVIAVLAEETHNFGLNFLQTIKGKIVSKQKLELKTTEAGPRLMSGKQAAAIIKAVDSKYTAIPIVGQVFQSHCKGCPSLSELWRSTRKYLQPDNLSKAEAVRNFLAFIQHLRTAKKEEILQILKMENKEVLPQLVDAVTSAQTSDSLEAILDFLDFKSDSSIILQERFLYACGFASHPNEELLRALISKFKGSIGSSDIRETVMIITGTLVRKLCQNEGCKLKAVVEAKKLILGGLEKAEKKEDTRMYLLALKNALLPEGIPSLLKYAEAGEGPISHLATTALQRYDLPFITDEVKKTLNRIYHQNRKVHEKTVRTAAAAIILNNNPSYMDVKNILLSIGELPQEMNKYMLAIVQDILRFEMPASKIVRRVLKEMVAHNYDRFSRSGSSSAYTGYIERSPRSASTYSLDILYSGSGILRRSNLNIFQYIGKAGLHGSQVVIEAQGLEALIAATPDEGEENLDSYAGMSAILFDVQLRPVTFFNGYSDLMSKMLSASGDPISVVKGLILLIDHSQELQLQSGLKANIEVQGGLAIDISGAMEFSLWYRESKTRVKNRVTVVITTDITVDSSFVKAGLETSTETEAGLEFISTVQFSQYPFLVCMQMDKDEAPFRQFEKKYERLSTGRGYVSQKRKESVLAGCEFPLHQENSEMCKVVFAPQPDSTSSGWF
T1 sequence (P07237 18-508 partner): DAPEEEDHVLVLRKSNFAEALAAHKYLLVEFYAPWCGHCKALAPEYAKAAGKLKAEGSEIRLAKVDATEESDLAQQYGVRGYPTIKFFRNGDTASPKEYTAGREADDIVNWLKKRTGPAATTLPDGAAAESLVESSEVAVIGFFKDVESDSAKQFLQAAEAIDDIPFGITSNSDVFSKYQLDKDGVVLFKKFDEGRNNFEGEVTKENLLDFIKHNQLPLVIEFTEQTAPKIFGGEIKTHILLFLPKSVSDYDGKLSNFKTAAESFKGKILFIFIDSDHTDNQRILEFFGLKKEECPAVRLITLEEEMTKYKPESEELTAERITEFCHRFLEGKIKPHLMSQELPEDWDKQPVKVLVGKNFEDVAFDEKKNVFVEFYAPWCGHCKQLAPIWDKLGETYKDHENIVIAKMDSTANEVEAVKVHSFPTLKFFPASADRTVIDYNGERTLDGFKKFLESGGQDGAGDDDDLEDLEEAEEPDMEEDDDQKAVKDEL

IC50 [nM]	SMILES
< 10	COC(=O)c1ccc(OC(=O)CCCc2ccc(NC(=O)c3ccccc3-c3ccc(C(F)(F)F)cc3)c(C(=O)N(C)C)c2)c(C(C)C)c1 [Compound 1-68, 4-[4-(3-dimethylcarbamoyl-4-{(4′-trifluoromethylbiphenyl-2-carbonyl)amino}phenyl)butyryloxy]-3-isopropylbenzoic acid methyl ester]
10 to 100	COC(=O)c1ccc(OC(=O)CCCc2ccc(NC(=O)c3ccc(C)nc3-c3ccc(C(F)(F)F)cc3)c(C(=O)N(C)C)c2)c(C)c1 [Compound 1-69, 4-[4-(3-dimethylcarbamoyl-4-{[6-methyl-2-(4-trifluoromethylphenyl)pyridine-3-carbonyl]amino}phenyl)butyryloxy]-3-methylbenzoic acid methyl ester]
< 10	COC(=O)c1ccc(OC(=O)CCCc2ccc(NC(=O)c3ccc(C)nc3-c3ccc(C(F)(F)F)cc3)c(C(=O)N(C)C)c2)c(C(=O)OC)c1 [Compound 1-70, 4-[4-(3-dimethylcarbamoyl-4-{[6-methyl-2-(4-trifluoromethylphenyl)pyridine-3-carbonyl]amino}phenyl)butyryloxy]isophthalic acid dimethyl ester]
< 10	CCOC(=O)c1ccc(OC(=O)CCCc2ccc(NC(=O)c3ccc(C)nc3-c3ccc(C(F)(F)F)cc3)c(C(=O)N(C)C)c2)cc1 [Compound 1-71, 4-[4-(3-dimethylcarbamoyl-4-{[6-methyl-2-(4-trifluoromethylphenyl)pyridine-3-carbonyl]amino}phenyl)butyryloxy]benzoic acid ethyl ester]
< 10	COC(=O)c1cc(C(=O)OC(C)C)ccc1OC(=O)CCCc1ccc(NC(=O)c2ccc(C)nc2-c2ccc(C(F)(F)F)cc2)c(C(=O)N(C)C)c1 [Compound 1-72, 4-[4-(3-dimethylcarbamoyl-4-{[6-methyl-2-(4-trifluoromethylphenyl)pyridine-3-carbonyl]amino}phenyl)butyryloxy]isophthalic acid 1-isopropyl ester 3-methyl ester]
< 10	CCc1cc(C(=O)OC)cc(Cl)c1OC(=O)CCCc1ccc(NC(=O)c2ccc(C)nc2-c2ccc(C(F)(F)F)cc2)c(C(=O)N(C)C)c1 [Compound 1-73, 3-chloro-4-[4-(3-dimethylcarbamoyl-4-{[6-methyl-2-(4-trifluoromethylphenyl)pyridine-3-carbonyl]amino}phenyl)butyryloxy]-5-ethylbenzoic acid methyl ester]
< 10	COC(=O)c1cc(Cl)c(OC(=O)CCCc2ccc(NC(=O)c3ccc(C)nc3-c3ccc(C(F)(F)F)cc3)c(C(=O)N(C)C)c2)c(C(C)C)c1 [Compound 1-74, 3-chloro-4-[4-(3-dimethylcarbamoyl-4-{[6-methyl-2-(4-trifluoromethylphenyl)pyridine-3-carbonyl]amino}phenyl)butyryloxy]-5-isopropylbenzoic acid methyl ester]
< 10	CCCOC(=O)c1cc(Cl)c(OC(=O)CCCc2ccc(NC(=O)c3ccc(C)nc3-c3ccc(C(F)(F)F)cc3)c(C(=O)N(C)C)c2)c(OC)c1 [Compound 1-75, 3-chloro-4-[4-(3-dimethylcarbamoyl-4-{[6-methyl-2-(4-trifluoromethylphenyl)pyridine-3-carbonyl]amino}phenyl)butyryloxy]-5-methoxybenzoic acid propyl ester]
< 10	CC(C)OCCOC(=O)c1ccc(OC(=O)CCCc2ccc(NC(=O)c3ccccc3-c3ccc(C(F)(F)F)cc3)c(C(=O)N(C)C)c2)cc1 [Compound 1-76, 4-[4-(3-dimethylcarbamoyl-4-{(4′-trifluoromethylbiphenyl-2-carbonyl)amino}phenyl)butyryloxy]benzoic acid 2-isopropoxyethyl ester]
< 10	CC(=O)NCCOC(=O)c1ccc(OC(=O)CCCc2ccc(NC(=O)c3ccccc3-c3ccc(C(F)(F)F)cc3)c(C(=O)N(C)C)c2)cc1 [Compound 1-77, 4-[4-(3-dimethylcarbamoyl-4-{(4′-trifluoromethylbiphenyl-2-carbonyl)amino}phenyl)butyryloxy]benzoic acid 2-acetylaminoethyl ester]
< 10	CN(C)C(=O)c1cc(CCCC(=O)Oc2ccc(C(=O)OCC(=O)OCc3ccccc3)cc2)ccc1NC(=O)c1ccccc1-c1ccc(C(F)(F)F)cc1 [Compound 1-78]
< 10	CN(C)C(=O)c1cc(CCCC(=O)Oc2ccc(C(=O)OCc3ccc(Cl)cc3)cc2)ccc1NC(=O)c1ccccc1-c1ccc(C(F)(F)F)cc1 [Compound 1-79, 4-[4-(3-dimethylcarbamoyl-4-{(4′-trifluoromethylbiphenyl-2-carbonyl)amino}phenyl)butyryloxy]benzoic acid 4-chlorobenzyl ester]
< 10	Cc1ccc(C(=O)Nc2ccc(CCCC(=O)Oc3ccc(C(=O)OCc4ccccc4)cc3)cc2C(=O)N(C)C)c(-c2ccc(C(F)(F)F)cc2)n1 [Compound 1-80, 4-[4-(3-dimethylcarbamoyl-4-{[6-methyl-2-(4-trifluoromethylphenyl)pyridine-3-carbonyl]amino}phenyl)butyryloxy]benzoic acid benzyl ester]
< 10	CN(C)C(=O)c1cc(CCCC(=O)Oc2ccc(C(=O)OCc3ccccn3)cc2)ccc1NC(=O)c1ccccc1-c1ccc(C(F)(F)F)cc1 [Compound 1-82, 4-[4-(3-dimethylcarbamoyl-4-{(4′-trifluoromethylbiphenyl-2-carbonyl)amino}phenyl)butyryloxy]benzoic acid pyridin-2-ylmethyl ester]
< 10	CN(C)C(=O)c1cc(CCCC(=O)Oc2ccc(C(=O)OCc3cccnc3)cc2)ccc1NC(=O)c1ccccc1-c1ccc(C(F)(F)F)cc1 [Compound 1-83, 4-[4-(3-dimethylcarbamoyl-4-{(4′-trifluoromethylbiphenyl-2-carbonyl)amino}phenyl)butyryloxy]benzoic acid pyridin-3-ylmethyl ester]
< 10	CN(C)C(=O)c1cc(CCCC(=O)Oc2ccc(C(=O)OCc3ccncc3)cc2)ccc1NC(=O)c1ccccc1-c1ccc(C(F)(F)F)cc1 [Compound 1-84, 4-[4-(3-dimethylcarbamoyl-4-{(4′-trifluoremethylbiphenyl-2-carbonyl)amino}phenyl)butyryloxy]benzoic acid pyridin-4-ylmethyl ester]
< 10	CN(C)C(=O)COC(=O)c1ccc(OC(=O)CCCc2ccc(NC(=O)c3ccccc3-c3ccc(C(F)(F)F)cc3)c(C(=O)N(C)C)c2)cc1 [Compound 1-85, 4-[4-(3-dimethylcarbamoyl-4-{(4′-trifluoromethylbiphenyl-2-carbonyl)amino}phenyl)butyryloxy]benzoic acid dimethylcarbamoylmethyl ester]
< 10	COC(=O)COC(=O)c1ccc(OC(=O)CCCc2ccc(NC(=O)c3ccccc3-c3ccc(C(F)(F)F)cc3)c(C(=O)N(C)C)c2)cc1 [Compound 1-86, 4-[4-(3-dimethylcarbamoyl-4-{(4′-trifluoromethylbiphenyl-2-carbonyl)amino}phenyl)butyryloxy]benzoic acid methoxycarbonylmethyl ester]
< 10	CN(C)C(=O)c1cc(CCCC(=O)Oc2ccc(C(=O)OCc3cccc(Cl)c3)cc2)ccc1NC(=O)c1ccccc1-c1ccc(C(F)(F)F)cc1 [Compound 1-87, 4-[4-(3-dimethylcarbamoyl-4-{(4′-trifluoromethylbiphenyl-2-carbonyl)amino}phenyl)butyryloxy]benzoic acid 3-chlorobenzyl ester]
